Where two headings read alike, the source gives them in different places. Each block holds one molecule with its values, some of them ahead of it.
Key:
Type in all cases: cell-based
HIV-1 HBX2 (wild type) = assay: High throughput cytopathic effect assay in MT-4 cells, HIV-1 wild type
Source text: (§1) Compounds were screened in a miniaturized, high throughput cytopathic effect assay for activity against HIV-1 HBX2 (wild type) and HIV-1 reverse transcriptase mutants K103N and Y181C. In Tables 1 and 2 below, “w.t.” refers to results of the tested compounds run with the wildtype 1 and “w.t. assay 2” refers results of the tested compounds run with the wildtype on the same day as the testing of the compounds with the mutants. Thus, “w.t. assay 2” was run under the same conditions as the testing of the compounds with the mutants and provides a direct comparison with the results from the testing with the mutants.
(§2) Ten-point serial dilutions of compounds with half-log step size were generated in DMSO. AZT (5 μM) was used as the positive control and DMSO as the negative control. The Echo acoustic dispenser was used to deliver 200 nL of serially diluted compound into sterile 384 well tissue culture assay plates. Two million MT-4 cells were incubated with each of the 3 viruses at MOI of 0.0005 in separate 1 mL infection tubes for 1 hour at 37° C. The cells were diluted in cell culture medium (RPMI+10% FBS) to 50,000 cells/mL. The infected cells were added to 384 well assay plates containing serially dilute compounds. Assay plates were incubated for 5 days in a humidified incubator set at 37° C. and 5% CO2. To measure the cytopathic effect of HIV, 40 μL Cell TiterGlo was added to each well and the resulting luminescence signal is read with the Envision plate reader (Perkin Elmer). Data were normalized to positive and negative controls in each plate and expressed as % CPE Protection. EC50 values were defined as the compound concentration that caused a 50% […] in luminescence signal, and were calculated by non-linear regression using Pipeline Pilot software by applying a four parameter fit equation (Accelrys, San Diego, Calif.).
(§3) The high-throughput screening was also run for nevirapine (“NPV”), rilpivirine (“RPV”), and efavirenz (“EFV”). Nevirapine was obtained from Toronto Research Chemicals, Inc. (Toronto, Canada; Catalogue #N391275). Rilpivirine was obtained from Key Organics Ltd. (Camelford, Cornwall, United Kingdom; Catalogue #KE-0036). Efavirenz was obtained from Toronto Research Chemicals, Inc. (Toronto, Canada; Catalogue #E425000). Further details and background can be found in Janssen et al, J. Med. Chem, 2005, 48, 1901-1909; Das et al., Proc. Nat. Acad. Sci., 2008, vol., 105, no. 5, 1466-1471; and Kuroda et al., Nature Chemistry, 2013, DOI: 10.1038/NCHEM.1559.

[1] = system: HIV-1 reverse transcriptase mutant K103N; assay: High throughput cytopathic effect assay in MT-4 cells, HIV-1 RT mutant K103N; settings: for EC50: Human immunodeficiency virus 1, MT4, read-out: MT4 EC50 (nM) against K103N; for FC against mutant K103N: fold change of EC50, K103N versus w.t. assay 2
Source text: as §1, §2, §3

[2] = system: HIV-1 reverse transcriptase mutant Y181C; assay: High throughput cytopathic effect assay in MT-4 cells, HIV-1 RT mutant Y181C; settings: for EC50: Human immunodeficiency virus 1, MT4, read-out: MT4 EC50 (nM) against Y181C; for FC against mutant Y181C: fold change of EC50, Y181C versus w.t. assay 2
Source text: as §1, §2, §3

hERG channels = target: T1, hERG channels (Homo sapiens, UniProt Q12809); assay: hERG assay, whole cell recordings in CHO cells stably expressing hERG channels; settings: tail current, whole cell patch clamp
T1 construct: host or cells: CHO cells stably expressing hERG
Description: AVIVA's CHO cell line, which stably expresses hERG channels, was used for the study. Cells were cultured in DMEM/F12 containing 10% FBS, 1% penicillin/streptomycin and 500 μg/ml G418. Before testing, cells were harvested using Accumax (Innovative Cell Technologies).
For electrophysiological recordings, the following solutions were used:
External Solution: 2 mM CaCl2; 2 mM MgCl2; 4 mM KCl; 150 mM NaCl; 10 mM Glucose; 10 mM HEPES; 305-315 mOsm; pH 7.4 (adjusted with 5M NaOH.)
Internal Solution: 140 mM KCl; 10 mM MgCl2; 6 mM EGTA; 5 mM HEPES-Na; 5 mM ATP-Mg; 295-305 mOsm; pH 7.25 (adjusted with 1M KOH).
Whole cell recordings were performed using PX 7000A (Axon Instruments) with AVIVA's SealChip™ technology. Cells were voltage clamped at a holding potential of −80 mV. The hERG current was then activated by a depolarizing step to −50 mV for 300 ms. This first step at −50 mV was used as a baseline for measuring peak amplitude of the tail current. Next, a voltage step to +20 mV was applied for 5 s to activate the channels. Finally, a step back to −50 mV for 5 s removed activation and the deactivating tail current was recorded.
All test articles were prepared from 10 mM DMSO stock solutions. […]
After achieving whole cell configuration, cells were monitored for 90 s to assess stability and then washed with External Solution for 66 s. […]

[3] = Human immunodeficiency virus 1, MT4, 120 h, MT-4 cells, HIV-1 wild type, 5 days, CPE protection (Cell TiterGlo), read-out: MT4 EC50 (nM) against w.t.
[4] = Human immunodeficiency virus 1, MT4, read-out: MT4 EC50 (nM) against w.t. assay 2

T1 sequence (Q12809 whole entry): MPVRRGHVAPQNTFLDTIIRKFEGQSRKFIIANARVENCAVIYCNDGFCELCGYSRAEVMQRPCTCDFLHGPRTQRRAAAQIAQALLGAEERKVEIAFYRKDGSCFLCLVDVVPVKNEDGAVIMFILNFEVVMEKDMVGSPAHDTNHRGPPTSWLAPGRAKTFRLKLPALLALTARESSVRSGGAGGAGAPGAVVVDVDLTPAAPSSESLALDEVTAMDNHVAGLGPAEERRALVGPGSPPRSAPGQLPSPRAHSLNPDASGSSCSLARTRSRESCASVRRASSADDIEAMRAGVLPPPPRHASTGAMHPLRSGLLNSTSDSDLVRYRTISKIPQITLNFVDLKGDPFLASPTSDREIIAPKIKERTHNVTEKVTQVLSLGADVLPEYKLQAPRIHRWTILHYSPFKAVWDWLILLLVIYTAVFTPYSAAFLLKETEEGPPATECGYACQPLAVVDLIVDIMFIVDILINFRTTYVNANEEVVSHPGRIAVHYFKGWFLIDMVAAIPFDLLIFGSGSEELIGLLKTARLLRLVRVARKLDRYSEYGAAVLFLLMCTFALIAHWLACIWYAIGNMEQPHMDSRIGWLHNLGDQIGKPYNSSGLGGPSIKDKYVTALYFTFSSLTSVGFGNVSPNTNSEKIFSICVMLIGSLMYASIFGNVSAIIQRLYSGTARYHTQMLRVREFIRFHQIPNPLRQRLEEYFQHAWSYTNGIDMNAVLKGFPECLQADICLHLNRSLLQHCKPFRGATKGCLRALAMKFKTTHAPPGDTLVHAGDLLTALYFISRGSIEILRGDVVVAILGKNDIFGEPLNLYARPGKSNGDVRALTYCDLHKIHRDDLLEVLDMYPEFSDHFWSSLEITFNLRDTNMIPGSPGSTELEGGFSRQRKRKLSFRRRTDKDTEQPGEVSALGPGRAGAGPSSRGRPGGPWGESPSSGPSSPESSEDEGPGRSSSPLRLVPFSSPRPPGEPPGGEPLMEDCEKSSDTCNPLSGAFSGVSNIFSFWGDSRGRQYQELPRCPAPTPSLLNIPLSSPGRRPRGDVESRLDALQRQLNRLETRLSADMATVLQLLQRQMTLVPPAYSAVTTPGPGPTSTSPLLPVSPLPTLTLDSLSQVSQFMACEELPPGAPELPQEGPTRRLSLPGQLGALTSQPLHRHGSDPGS

Compound: Cc1cc(/C=C/C#N)cc(C)c1-c1cccc2c(N)nc(Nc3cnc(C#N)cn3)cc12 [Compound 2, (E)-5-((1-Amino-5-(4-(2-cyanovinyl)-2,6-dimethylphenyl)isoquinolin-3-yl)amino)pyrazine-2-carbonitrile]
EC50 (HIV-1 HBX2 (wild type); [3]): 14.4 nM
EC50 (HIV-1 HBX2 (wild type); [4]): 20.2 nM
EC50 [1]: 29.7 nM
FC against mutant K103N [1]: 1.5
EC50 [2]: 109 nM
FC against mutant Y181C [2]: 5.4

Compound: Cc1cc(/C=C/C#N)cc(C)c1-c1cccc2cnc(Nc3ccc(C#N)cn3)cc12 [Compound 5, (E)-6-((5-(4-(2-Cyanovinyl)-2,6-dimethylphenyl)isoquinolin-3-yl)amino)nicotinonitrile]
EC50 (HIV-1 HBX2 (wild type); [3]): 4.2 nM
EC50 (HIV-1 HBX2 (wild type); [4]): 4.7 nM
EC50 [1]: 4.7 nM
FC against mutant K103N [1]: 1.0
EC50 [2]: 12 nM
FC against mutant Y181C [2]: 2.5

Compound: Cc1cc(/C=C/C#N)cc(C)c1Nc1ccnc(Nc2ccc(C#N)cc2)n1 [Rilpivirine, rilpivirine, reference compound]
EC50 (HIV-1 HBX2 (wild type); [3]): 0.9 nM
EC50 (HIV-1 HBX2 (wild type); [4]): 1.3 nM
EC50 [1]: 1.5 nM
FC against mutant K103N [1]: 1.2
EC50 [2]: 3.8 nM
FC against mutant Y181C [2]: 3.1
hERG (hERG channels): 0.5 µM

Compound: Cc1cc(/C=C/C#N)cc(C)c1-c1cccc2c(N)nc(Nc3ccc(C#N)cn3)cc12 [Compound 4, (E)-6-((1-Amino-5-(4-(2-cyanovinyl)-2,6-dimethylphenyl)isoquinolin-3-yl)amino)nicotinonitrile]
EC50 (HIV-1 HBX2 (wild type); [3]): 2.8 nM
EC50 (HIV-1 HBX2 (wild type); [4]): 3.6 nM
EC50 [1]: 3.7 nM
FC against mutant K103N [1]: 1.0
EC50 [2]: 12 nM
FC against mutant Y181C [2]: 3.4
hERG (hERG channels): 3 µM

Compound: O=C1Nc2ccc(Cl)cc2[C@@](C#CC2CC2)(C(F)(F)F)O1 [Efavirenz, efavirenz, reference compound]
EC50 (HIV-1 HBX2 (wild type); [3]): 1.3 nM
EC50 (HIV-1 HBX2 (wild type); [4]): 1.6 nM
EC50 [1]: 46.4 nM
FC against mutant K103N [1]: 28.9
EC50 [2]: 3.8 nM
FC against mutant Y181C [2]: 2.3

Compound: Cc1cc(/C=C/C#N)cc(C)c1-c1cccc2c(N)nc(Nc3ccc(C#N)nn3)cc12 [Compound 3, (E)-6-((1-Amino-5-(4-(2-cyanovinyl)-2,6-dimethylphenyl)isoquinolin-3-yl)amino)pyridazine-3-carbonitrile]
EC50 (HIV-1 HBX2 (wild type); [3]): 17 nM
EC50 (HIV-1 HBX2 (wild type); [4]): 22.7 nM
EC50 [1]: 36.4 nM
FC against mutant K103N [1]: 1.6
EC50 [2]: 174 nM
FC against mutant Y181C [2]: 7.7

Compound: Cc1cc(/C=C/C#N)cc(C)c1-c1cccc2c(N)nc(Nc3ncc(C#N)cn3)cc12 [Compound 1, (E)-2-((1-Amino-5-(4-(2-cyanovinyl)-2,6-dimethylphenyl)isoquinolin-3-yl)amino)pyrimidine-5-carbonitrile]
EC50 (HIV-1 HBX2 (wild type); [3]): 6.4 nM
EC50 (HIV-1 HBX2 (wild type); [4]): 4.5 nM
EC50 [1]: 6.4 nM
FC against mutant K103N [1]: 1.4
EC50 [2]: 51.6 nM
FC against mutant Y181C [2]: 11.5

Compound: Cc1cc(/C=C/C#N)cc(C)c1-c1cccc2cnc(Nc3ccc(C#N)cc3)cc12 [Compound 6, (E)-4-((5-(4-(2-Cyanovinyl)-2,6-dimethylphenyl)isoquinolin-3-yl)amino)benzonitrile]
EC50 (HIV-1 HBX2 (wild type); [3]): 12.9 nM

EC50 (HIV-1 HBX2 (wild type); [3]): 65 nM
Compound: Cc1ccnc2c1NC(=O)c1cccnc1N2C1CC1 [Nevirapine, nevirapine, reference compound]

— patent US9624195B2, “Isoquinoline compounds” (Gilead Sciences, Inc., priority 2014, dated 2017)
